Data taken from ChEMBL document CHEMBL1201862, “PubChem BioAssay data set” (2004).
Active and inactive are the calls of the source.

How the values were obtained:
HEK293 = assay: viability loss in HEK293T cells – cell-based, ATP luminescence, cherry-pick samples, cytotoxicity control, dose response (AID 687005); assay type: functional; conditions: Homo sapiens;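 note: cells exposed to compound for 48 hours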
[1] = HEK293 Cytotoxicity Assay Measured in Cell-Based System Using Plate Reader - 7071-01_Inhibitor_Dose_CherryPick_Activity_Set2.; assay type: functional
[2] = viability loss in THP-1 monocytes – THP-1 cells, cytotoxicity control for Vif-APOBEC3G degradation inhibitor project, dose response (AID 1117359); assay type: functional; conditions: THP-1
cells = assay type: functional, cell-based
[3] = target: T1, Nuclear receptor subfamily 0 group B member 1 (Homo sapiens, UniProt P51843); assay type: functional, cell-based;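 note: HEK293T cells transfected with SF-1 and DAX-1 plus StAR promoter luciferase reporter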
T1 sequence (P51843 whole entry): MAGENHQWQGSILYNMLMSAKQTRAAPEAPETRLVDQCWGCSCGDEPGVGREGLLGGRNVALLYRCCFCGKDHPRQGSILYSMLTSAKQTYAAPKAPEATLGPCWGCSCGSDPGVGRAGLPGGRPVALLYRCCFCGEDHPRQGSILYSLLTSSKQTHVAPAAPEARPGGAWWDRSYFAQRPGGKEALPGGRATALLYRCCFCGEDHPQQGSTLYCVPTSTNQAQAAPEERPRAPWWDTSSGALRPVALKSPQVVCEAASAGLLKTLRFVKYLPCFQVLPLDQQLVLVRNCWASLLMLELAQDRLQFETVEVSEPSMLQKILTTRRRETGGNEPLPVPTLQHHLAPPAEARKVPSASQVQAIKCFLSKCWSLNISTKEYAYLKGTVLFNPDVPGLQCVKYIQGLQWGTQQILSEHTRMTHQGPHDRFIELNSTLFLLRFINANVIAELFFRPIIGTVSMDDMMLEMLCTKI

[4] = target: Luciferin 4-monooxygenase (Photinus pyralis, UniProt P08659); assay: inhibition of purified Photinus pyralis luciferase – biochemical, luminescence, dose response (AID 1891)
Sequence of Luciferin 4-monooxygenase (P08659 whole entry): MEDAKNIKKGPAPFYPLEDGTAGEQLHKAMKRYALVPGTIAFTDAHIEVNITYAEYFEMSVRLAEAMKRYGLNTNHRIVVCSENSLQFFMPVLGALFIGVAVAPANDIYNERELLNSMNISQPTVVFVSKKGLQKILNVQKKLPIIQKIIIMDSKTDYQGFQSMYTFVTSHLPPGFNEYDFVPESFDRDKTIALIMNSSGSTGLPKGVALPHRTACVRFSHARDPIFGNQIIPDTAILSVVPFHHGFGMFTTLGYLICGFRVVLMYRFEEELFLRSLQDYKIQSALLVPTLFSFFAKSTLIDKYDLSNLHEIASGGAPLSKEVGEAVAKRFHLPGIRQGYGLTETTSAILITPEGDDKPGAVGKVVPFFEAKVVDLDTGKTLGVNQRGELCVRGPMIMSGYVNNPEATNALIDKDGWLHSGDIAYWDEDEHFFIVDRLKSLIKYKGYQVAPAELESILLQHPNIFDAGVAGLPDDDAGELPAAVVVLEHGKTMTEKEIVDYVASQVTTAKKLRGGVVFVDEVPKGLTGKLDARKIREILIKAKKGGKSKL

[5] = target: Protein-tyrosine kinase 2-beta (Homo sapiens, UniProt Q14289);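 note: potency of inhibitors of PYK2 kinase phosphorylation of poly-GT substrate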
Sequence of Protein-tyrosine kinase 2-beta (Q14289 whole entry): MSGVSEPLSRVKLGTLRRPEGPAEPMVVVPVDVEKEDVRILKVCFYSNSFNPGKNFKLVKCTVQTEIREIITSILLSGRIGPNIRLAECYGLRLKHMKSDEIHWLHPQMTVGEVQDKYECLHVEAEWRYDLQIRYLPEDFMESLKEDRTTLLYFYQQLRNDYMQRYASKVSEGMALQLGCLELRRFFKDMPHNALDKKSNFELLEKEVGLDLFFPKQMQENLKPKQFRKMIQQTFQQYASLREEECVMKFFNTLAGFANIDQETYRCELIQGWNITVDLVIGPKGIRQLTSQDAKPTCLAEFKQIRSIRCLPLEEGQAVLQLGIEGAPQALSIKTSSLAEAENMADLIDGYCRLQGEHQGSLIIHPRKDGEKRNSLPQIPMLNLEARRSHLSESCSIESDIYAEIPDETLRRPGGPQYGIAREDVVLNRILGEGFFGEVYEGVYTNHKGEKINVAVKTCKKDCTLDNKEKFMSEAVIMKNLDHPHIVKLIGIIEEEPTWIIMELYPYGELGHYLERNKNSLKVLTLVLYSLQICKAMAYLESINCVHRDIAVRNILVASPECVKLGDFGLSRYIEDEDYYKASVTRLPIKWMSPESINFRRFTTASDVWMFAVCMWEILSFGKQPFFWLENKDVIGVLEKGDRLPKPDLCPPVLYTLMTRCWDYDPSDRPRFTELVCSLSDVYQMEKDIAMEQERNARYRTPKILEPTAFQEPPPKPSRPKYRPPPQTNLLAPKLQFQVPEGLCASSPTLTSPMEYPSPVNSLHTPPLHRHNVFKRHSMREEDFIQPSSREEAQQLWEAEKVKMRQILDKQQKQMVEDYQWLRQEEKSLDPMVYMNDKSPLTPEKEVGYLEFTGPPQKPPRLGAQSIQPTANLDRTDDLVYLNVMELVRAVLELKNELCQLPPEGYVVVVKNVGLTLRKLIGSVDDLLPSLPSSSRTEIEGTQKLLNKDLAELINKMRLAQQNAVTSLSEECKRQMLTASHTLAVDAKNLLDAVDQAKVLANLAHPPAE

[6] = Luminescence Cell-Based Dose Confirmation HTS to Identify Inhibitors of Platelet Dense Granule Release. [Related pubchem assays: 1663 (Primary HTS), 1678 (Summary of Project)]; assay type: functional
[7] = target: Disintegrin and metalloproteinase domain-containing protein 17 (Homo sapiens, UniProt P78536); assay: exosite inhibitors of ADAM17, dose response, biochemical (AID 743260)
Sequence of Disintegrin and metalloproteinase domain-containing protein 17 (P78536 whole entry, the tested form may be a part): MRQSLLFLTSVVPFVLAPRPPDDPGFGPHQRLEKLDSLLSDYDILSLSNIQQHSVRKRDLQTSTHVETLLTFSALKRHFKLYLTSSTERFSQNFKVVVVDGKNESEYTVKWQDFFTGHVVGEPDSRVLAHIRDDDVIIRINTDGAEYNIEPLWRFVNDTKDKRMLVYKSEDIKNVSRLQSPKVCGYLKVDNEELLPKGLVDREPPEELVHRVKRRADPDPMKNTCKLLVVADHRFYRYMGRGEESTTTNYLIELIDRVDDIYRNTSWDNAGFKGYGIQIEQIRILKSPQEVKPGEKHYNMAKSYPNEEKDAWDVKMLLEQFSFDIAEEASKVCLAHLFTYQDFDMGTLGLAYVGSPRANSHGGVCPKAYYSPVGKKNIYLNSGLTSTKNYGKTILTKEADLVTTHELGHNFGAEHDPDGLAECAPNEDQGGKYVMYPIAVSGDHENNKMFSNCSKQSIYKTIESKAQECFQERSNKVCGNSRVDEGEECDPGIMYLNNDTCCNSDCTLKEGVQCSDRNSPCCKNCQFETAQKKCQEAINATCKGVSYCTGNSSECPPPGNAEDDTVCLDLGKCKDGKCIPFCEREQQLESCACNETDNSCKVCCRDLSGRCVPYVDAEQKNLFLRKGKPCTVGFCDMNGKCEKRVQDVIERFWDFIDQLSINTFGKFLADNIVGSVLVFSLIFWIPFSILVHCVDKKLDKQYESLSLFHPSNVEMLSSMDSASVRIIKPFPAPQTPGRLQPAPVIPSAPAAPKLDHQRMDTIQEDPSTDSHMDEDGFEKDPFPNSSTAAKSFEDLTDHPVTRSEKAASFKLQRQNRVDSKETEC

[8] = inhibition of ADAM10 peptide cleavage – biochemical, FRET peptide substrate, recombinant human ADAM10, selectivity assay for ADAM17 exosite inhibitor project, dose response (AID 743259);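 note: ADAM10 enzyme cleaving a FRET peptide substrate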
[9] = HIV-1 Vif–A3G interaction blockers – biochemical, TR-FRET, GST-Vif 1-94, biotin-A3G peptide, dose response retest, primary screen (AID 1117319); assay type: functional;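 note: TR-FRET signal of purified GST-Vif binding a biotinylated A3G peptide; inhibitors lower the FRET signal by blocking Vif and A3G binding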
[10] = blockers of bursicon-stimulated LGR2 cAMP reporter – cell-based, HEK293, CRE-luciferase reporter, cherry pick, set 2, dose response (AID 743343); assay type: functional;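 note: transfected cells were stimulated with diluted bursicon conditioned medium after compound addition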
[11] = toxicity toward HepG2 liver cells – cell-based, plate reader, cherry-pick, antagonist series, cytotoxicity control, dose response (AID 743416); assay type: functional
[12] = HPDE-C7 pancreatic duct cell viability loss – fluorescence, HTS (AID 430); assay type: functional, cell-based; conditions: Homo sapiens
[13] = viability loss of HPDE-C7K cells – cell-based, fluorescence, HTS, primary screen (AID 431); assay type: functional; conditions: Homo sapiens
[14] = viability loss in HEK293 cells – cell-based, plate reader, cherry-picked samples, cytotoxicity control, dose response (AID 743446); assay type: functional
[15] = A549 cell cytotoxicity, dose response, cytotoxicity control, plate reader, cherry-pick, antagonist series (AID 743412); assay type: functional, cell-based
Streptococcus = assay: GAS UMAA2166 growth inhibition – luminescence, BacTiterGlo, counter-screen for streptokinase expression inhibitor project, dose response (AID 1915); assay type: functional, organism-based;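 note: potency for reduction of bacterial viability or growth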
[16] = tested on: Streptococcus sp. 'group A'; assay: Streptococcus pyogenes SK(-)GAS viability under kanamycin – luminescence, BacTiterGlo, confirmation, counter-screen for streptokinase expression inhibitor project, dose response (AID 1900); assay type: functional, organism-based
Streptokinase A = target: T2, Streptokinase A (Streptococcus pyogenes serotype M1, UniProt P10520); assay: viability-normalized secreted streptokinase activity reduction – plasminogen activation absorbance, OD405, dose response (AID 1914); assay type: functional, Streptococcus pyogenes M1 GAS;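 note: secreted streptokinase activity via plasminogen activation per viability signal from cell pellet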
T2 sequence (P10520 whole entry): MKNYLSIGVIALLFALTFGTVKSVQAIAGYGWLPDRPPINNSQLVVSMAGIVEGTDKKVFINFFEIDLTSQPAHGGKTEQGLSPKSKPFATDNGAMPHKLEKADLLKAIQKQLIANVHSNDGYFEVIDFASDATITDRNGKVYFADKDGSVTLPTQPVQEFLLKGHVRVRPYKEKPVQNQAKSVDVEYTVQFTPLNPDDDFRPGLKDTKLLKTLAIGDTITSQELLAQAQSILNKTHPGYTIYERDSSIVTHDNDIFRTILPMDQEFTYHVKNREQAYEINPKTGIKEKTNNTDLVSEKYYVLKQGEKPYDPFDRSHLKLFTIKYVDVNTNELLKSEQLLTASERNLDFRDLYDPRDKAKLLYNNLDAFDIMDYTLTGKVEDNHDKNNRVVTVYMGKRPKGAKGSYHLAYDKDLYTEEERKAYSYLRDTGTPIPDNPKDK

[17] = Luminescence-based counterscreen assay for KLF5 inhibitors: dose response cell-based high throughput screening assay to identify cytotoxic compounds using the IEC-6 intestinal epithelial cell line. [Related pubchem assays: 1700 (Primary screen.), 1834 (Confirmation screen.), 1858 (Summary AID.), 1905 (Counterscreen.)]; assay type: functional
[18] = blockade of melanocortin 4 receptor signaling – cell-based, plate reader, cherry pick, counter-screen for LGR2 antagonist project, dose response (AID 743444); assay type: functional;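 note: transfected HEK 293 cells stimulated with alpha-MSH peptide; potency of inhibitors of the alpha-MSH evoked signal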
[19] = Luminescence Cell-Based Dose Confirmation to Identify Activators of 5'UTR Stem-Loop Driven Alpha-Synuclein mRNA Translation in H4 Neuroglioblastoma Cells. [Related pubchem assays: 1829 (Project Summary), 1814 (Primary HTS)]; assay type: functional
[20] = Luminescence Cell-Based Dose Confirmation HTS to Identify Activators of 5'UTR Stem-Loop Driven Alpha-Synuclein mRNA Translation in H4 Neuroglioblastoma Cells. [Related pubchem assays: 1829 (Project Summary), 1814 (Primary HTS)]; assay type: functional
[21] = Luminescence Cell-Based Dose Response to Identify Activators of 5'UTR Stem-Loop Driven Prion Protein mRNA Translation in H4-C Neuroglioblastoma Cells. [Related pubchem assays: 1829 (Project Summary), 1814 (Primary HTS)]; assay type: functional
[22] = Luminescence Cell-Based Dose Response HTS to Identify Activators of Luciferase Translation or Activity in H4 […] Cells. [Related pubchem assays: 1829 (Project Summary), 1814 (Primary HTS)]; assay type: functional
H4 = assay: Luminescence Cell-Based Dose Response HTS to Identify Activators of 5'UTR Stem-Loop Driven Prion Protein mRNA Translation in H4 Neuroglioblastoma Cells. [Related pubchem assays: 1829 (Project Summary), 1814 (Primary HTS)]; assay type: functional; conditions: Homo sapiens
[23] = Luminescence Cell-Based Dose Response to Identify Activators of Luciferase Translation or Activity in H4-C Neuroglioblastoma Cells. [Related pubchem assays: 1829 (Project Summary), 1814 (Primary HTS)]; assay type: functional
Protein Tat = Protein Tat (Human immunodeficiency virus type 1 group M subtype B (isolate HXB2)(HIV-1), UniProt P04608); assay type: functional;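 note: tat binding to TAR RNA read out by fluorescence polarization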
Sequence of Protein Tat (P04608 whole entry): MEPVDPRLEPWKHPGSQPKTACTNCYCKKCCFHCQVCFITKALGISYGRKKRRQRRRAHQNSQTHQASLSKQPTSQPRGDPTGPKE

With `Cc1ccc(N(CC(=O)NCCSCc2ccco2)S(=O)(=O)c2ccc(F)cc2)cc1` the AC50 (HEK293) was 31.9 µM (active), the AC50 [1] was 31.9 µM (active) and the CC50 [2] was > 40 µM (active).
With `O=C(Nc1ccc(SC(F)(F)F)cc1)c1ccccn1` the IC50 (cells) was > 67.5 µM (inactive) and the IC50 [3] was > 0.834 µM (active).
In the case of `CN1C(=O)/C(=C/c2cn(CC(=O)N3CCCCC3)c3ccccc23)c2ccccc21`, the EC50 [4] is reported as > 112 µM (not active), the IC50 [5] is reported as 46.6 µM (not active) and the EC50 [6] is reported as > 112 µM (not active).
For `Cc1nc2ccc(NC(=O)c3ccc(S(=O)(=O)N(C)c4ccccc4)cc3)cc2s1`, the IC50 [7] was > 69.5 µM (inactive) and the IC50 [8] was > 69.5 µM (inactive).
With `COC(=O)c1ccc(-n2nnnc2SCC(=O)Nc2cc(OC)ccc2OC)cc1` the IC50 [9] was > 100 µM (active).
In the case of `Cc1ccc2nc(C(F)(F)F)c(C#N)c(N)c2c1`, the AC50 [10] is reported as 22.9 µM (active), the AC50 [11] is reported as 16 µM (active) and the EC50 [12] is reported as > 20 µM (not active). The EC50 [13] was 7.2 µM (active), the AC50 [14] was > 52 µM (inactive) and the AC50 [15] was 24.2 µM (active).
With `CC(C)Oc1ccc(C(=O)Nc2nc3ccccc3[nH]2)cc1` the AC50 [10] was 1.2 µM (active), the AC50 [11] was 15.1 µM (active) and the EC50 (Streptococcus) was 28.6 µM (active). The EC50 [16] was 3.4 µM (active), the EC50 (Streptokinase A) was > 150 µM (not active) and the AC50 [14] was 16.2 µM (active). For the same compound, the AC50 [15] was 18.8 µM (active), the IC50 [17] was 17.8 µM (not active) and the AC50 [18] was 2.16 µM (active).
For `c1ccc2c(c1)Cn1nc(Cc3nc4c(s3)CCCC4)nc1-2`, the EC50 [19] was > 3.8 µM (not active), the EC50 [20] was < 0.1 µM (active) and the EC50 [21] was > 12 µM (not active). The EC50 [22] was 7.06 µM (active), the EC50 (H4) was 10.3 µM (active) and the EC50 [23] was > 12 µM (not active).
For `COc1ccc(OC)c(N/C(C)=C/C(=O)c2ccc(C)o2)c1`, the IC50 (Protein Tat) was > 100 µM (inconclusive).
